The results in this text go back to paper PMC6383519 (Cancer immunology, immunotherapy : CII, 2013).

Entries after “also recorded” stand apart in the source; their conditions may differ. Like-named read-outs stand apart in the source and are kept apart here.

For one assay, the system named is PBMCs of cancer patients. The assay is described as follows: Establishment of peptide-specific T-cell lines. The format is cell-based, human. To be noted: PBMCs of vaccinated cancer patients, autologous DCs pulsed with 20 μg/ml peptide.
Assay [1] relates to HLA-A2 molecule on T2 cells. The assay is described as follows: T2-cell binding. Also on record: species or system human. Particulars: for Actual binding: T2-A2 cells, peptide 12.5 μg/ml, overnight incubation, flow cytometry, mean fluorescence intensity; for T2-A2 binding (rank): ranking among 5 potential MUC1-C agonist epitopes. Background: Flow cytometry measures light scatter and fluorescence of single cells or particles in a stream.

In assay [2] the test system is MUC1-specific T-cell lines. In kind it is cell-based, human.
Assay [3] has as its system MUC1 peptide-specific CD8+ T cells. The assay is described as follows: Tetramer staining. Particulars: Supplemental Fig. 3; for binding of T-cell line to corresponding tetramer: HLA-A3 tetramers; for binding of T-cell line to the control tetramer: negative control tetramer. The format is cell-based, human.
Assay [4] relates to C1RA3 cells pulsed with the corresponding peptide. The assay is described as follows: Lysis of cells pulsed with the corresponding peptide. In kind it is cell-based, human. Particulars: T-cell lines from PBMCs of HLA-A3 patients vaccinated with PANVAC.
The subject of assay [5] is tumor cells endogenously expressing the native antigen. The assay is described as follows: Ranking of killing by peptide-specific CTL. In kind it is cell-based, human. To be noted: ranking among 5 potential MUC1-C agonist epitopes.
In assay [6] the test system is MUC1-specific T-cell lines. The assay is described as follows: IFN-γ production by peptide-specific T-cell lines. The format is cell-based, human. Particulars: ranking among 5 potential MUC1-C agonist epitopes.
Setting [7] is: HLA-A24, T-cell line T-C7A stimulated 24h with B-cells pulsed with the peptide.
The mark [8] stands for this setting: HLA-A24, T-cell line T-C7 stimulated 24h with B-cells pulsed with the peptide.

With STAPPAHGV [Peptide V1], in the assay with PBMCs of cancer patients, the “generation of T-cell lines with the peptide” value (“generation of T-cell lines” below) was “could not be generated”. Moreover, in assay [1], the Actual binding was 166 MFI.

Consider SYTNPAVAA [Peptide C7], for which the “generation of T-cell lines” value in the assay with PBMCs of cancer patients is on record as “grew poorly; also recorded: could be generated”. Besides, in assay [2] (setting [7]), the GM-CSF came to 215 pg/ml/2.5 × 10^5 T cells, the IFN-γ is reported as 680 pg/ml/2.5 × 10^5 T cells, the IL-2 is below 2.4 pg/ml/2.5 × 10^5 T cells and the IL-6 is given as below 2.4 pg/ml/2.5 × 10^5 T cells. Also, in assay [2] (setting [7]), the IL-8 worked out at 112 pg/ml/2.5 × 10^5 T cells, the IL-10 came to 92 pg/ml/2.5 × 10^5 T cells and the TNFα came out at 30 pg/ml/2.5 × 10^5 T cells. In addition, in assay [2] (setting [8]), the GM-CSF amounted to 237 pg/ml/2.5 × 10^5 T cells, the IFN-γ turned out to be 750 pg/ml/2.5 × 10^5 T cells, the IL-2 is below 2.4 pg/ml/2.5 × 10^5 T cells and the IL-6 came to 6.4 pg/ml/2.5 × 10^5 T cells. Also, in assay [2] (setting [8]), the IL-8 was found to be 6.8 pg/ml/2.5 × 10^5 T cells, the IL-10 stood at 25 pg/ml/2.5 × 10^5 T cells and the TNFα was 21 pg/ml/2.5 × 10^5 T cells.

Regarding ALFIVYLIAK [Peptide C4A], in assay [3], the “binding of T-cell line to corresponding tetramer” value was determined as 20.2% and the “binding of T-cell line to the control tetramer” value is recorded as below 0.04%. For the same sequence, the “generation of T-cell lines” value in the assay on PBMCs of cancer patients is given as “could be derived”. Besides, the “lysis of C1RA3 cells pulsed with the corresponding peptide” value in assay [4] is “seen”.

Turning to KYTNPAVAL [Peptide C7A], the “generation of T-cell lines” value with PBMCs of cancer patients is “could be generated”. Further, in assay [2] (setting [7]), the GM-CSF is 910 pg/ml/2.5 × 10^5 T cells, the IFN-γ is reported as 2,000 pg/ml/2.5 × 10^5 T cells, the IL-2 is recorded as below 2.4 pg/ml/2.5 × 10^5 T cells and the IL-6 is 40 pg/ml/2.5 × 10^5 T cells. In assay [2] (setting [7]), this sequence showed an IL-8 of 360 pg/ml/2.5 × 10^5 T cells, an IL-10 of 375 pg/ml/2.5 × 10^5 T cells and a TNFα of 70 pg/ml/2.5 × 10^5 T cells. In assay [2] (setting [8]), the GM-CSF stood at 300 pg/ml/2.5 × 10^5 T cells, the IFN-γ is 1,279 pg/ml/2.5 × 10^5 T cells, the IL-2 was below 2.4 pg/ml/2.5 × 10^5 T cells and the IL-6 was found to be 7.7 pg/ml/2.5 × 10^5 T cells. In assay [2] (setting [8]), this sequence registered an IL-8 of 7.3 pg/ml/2.5 × 10^5 T cells, an IL-10 of 45 pg/ml/2.5 × 10^5 T cells and a TNFα of 30 pg/ml/2.5 × 10^5 T cells.

With YLAIVYLIAL [Peptide C1A], the “Level of killing by peptide-specific CTL (rank)” value (“Level of killing” below) in assay [5] was 2. The “Level of IFN-γ produced by peptide-specific CTL (rank)” value (from here on “Level of IFN-γ produced”) in assay [6] was found to be 3. Besides, in assay [1], the Actual binding worked out at 245 MFI and the “T2-A2 binding (rank)” value amounted to 5.

As for YLSDVSVSDV [Peptide C8A], the “Level of killing” value in assay [5] is “Negative”. The “Level of IFN-γ produced” value in assay [6] was 4. In addition, the “T2-A2 binding (rank)” value in assay [1] was 2.

As for KYHPMSEYAL [Peptide C6A], in the assay with PBMCs of cancer patients, the “generation of T-cell lines” value is listed as “could be generated”. Besides, the IFN-γ in assay [2] (stimulation of the T-cell line generated with the C6A agonist peptide) is given as 2,651 pg/ml/10^5 cells.

As for SLFRSPYEK [Peptide C5A], in assay [3], the “binding of T-cell line to corresponding tetramer” value is given as 16.2% and the “binding of T-cell line to the control tetramer” value is below 0.04%. Further, in the assay on PBMCs of cancer patients, the “generation of T-cell lines” value is recorded as “could be derived”. The “lysis of C1RA3 cells pulsed with the corresponding peptide” value in assay [4] is “seen”.

Regarding ALAIVYLIAL [Peptide C4], in the assay with PBMCs of cancer patients, the “generation of T-cell lines” value is given as “grew poorly”.

In the case of YLIALAVCQV [Peptide C2A], the “Level of killing” value in assay [5] amounted to 1. In addition, the “Level of IFN-γ produced” value in assay [6] was determined as 1. For the same sequence, in assay [1], the Actual binding was 299 MFI and the “T2-A2 binding (rank)” value was determined as 3.

APDTRPAPG [Peptide V2]: the “generation of T-cell lines” value with PBMCs of cancer patients is given as “could not be generated”. For the same sequence, the Actual binding in assay [1] is 210 MFI.

YLIALAVCQC [Peptide C2] registered an Actual binding in assay [1] of 211 MFI.

Take YLSYTNPAV [Peptide C3A]: in assay [5], the “Level of killing” value is 3. In assay [6], the “Level of IFN-γ produced” value worked out at 2. Also, in assay [1], the Actual binding was determined as 342 MFI and the “T2-A2 binding (rank)” value stood at 1.

Turning to YLDTRPAPV [Peptide V2A], the “generation of T-cell lines” value in the assay on PBMCs of cancer patients is reported as “successfully generated”. The sequence further came in with an Actual binding in assay [1] of 647 MFI.

On to YLLVLVCVLV [Peptide C9A], for which the “Level of killing” value in assay [5] was “Negative”. The “Level of IFN-γ produced” value in assay [6] was “Negative”. Further, in assay [1], the “T2-A2 binding (rank)” value is given as 4.

With SLSYTNPAV [Peptide C3], in assay [1], the Actual binding turned out to be 326 MFI.

With YLAPPAHGV [Peptide V1A], the “generation of T-cell lines” value in the assay with PBMCs of cancer patients is “successfully generated”. In addition, in assay [1], the Actual binding came to 486 MFI.

In assay [1], ALAIVYLIAL [Peptide C1] returned an Actual binding of 249 MFI.

As to STDRSPYEK [Peptide C5], the “generation of T-cell lines” value in the assay on PBMCs of cancer patients is “grew poorly”.
